Some results are limits rather than exact numbers.

From patent US12472185B2, “Methods for killing antibiotic tolerant bacteria” (THE PENN STATE RESEARCH FOUNDATION, priority 2020, dated 2025) come the findings set out here.

One data set has as its system E. coli BW25113. The data set is described as follows: LIVE/DEAD staining. It is filed as cell-based, Escherichia coli. As to conditions: 100 μM, exponentially-growing cells. On the procedure: FIG. 4. NPIMA lyses Escherichia coli, Pseudomonas aeruginosa, and Staphylococcus aureus. LIVE/DEAD staining of (a) E. coli BW25113 after 0.75 hr, (b) P. aeruginosa PA14 after 1 hr, and (c) S. aureus after 1 hr treatment with NPIMA at 100 μM. […] White arrows indicate lysed cells. Representative images are shown. Scale bar=[…]. NPIMA, 5-nitro-3-phenyl-1H-indol-2-ylmethylamine hydrochloride.
Cell viability after treating with NPIMA was determined using the using the LIVE/DEAD BacLight Bacterial Viability Kit (catalog number, L7012; Molecular Probes, Inc., Eugene, OR). The fluorescence signal was analyzed via a Zeiss Axioscope.A1 using excitation at 485 nm and emission at 530 nm for green fluorescence and using excitation at 485 nm and emission at 630 nm for red fluorescence.

A further data set concerns human cancer HT-29 cells. The data set is described as follows: Viability (CCK-8) and cytotoxicity (LDH) assays. It is filed as cell-based. The following applies: 24 hr. The protocol: FIG. 11. Cytotoxicity of NPIMA with HT-29 cells. (A) Cell viability was measured via a CCK-8 assay. (B) Cytotoxicity was measured with various concentrations of NPIMA […] for 24 h. Cell viability was measured at 450 nm, and cell toxicity was measured at 492 nm and a reference wavelength ([…]) was used.
(§1) For bacterial viability, cells were washed twice with 0.85% NaCl, resuspended in 1×PBS, and cell counts were determined via the drop assay (Donegan, Matyac, Seidler, & Porteous, 1991). For human cell viability, pre-cultured human cancer HT-29 cells were dispensed in 98 μl in 96-well plates with approximately 5,000 cells/well. NPIMA was added (2 μl) to produce concentrations of 5, 10, 100, and 200 μM. For controls, Triton X-100 (positive control) and DMSO (negative solvent control), were used, and the medium was used for background. Plates were incubated in a humidified incubator (37° C., 5% CO2) for 24 hr. Cell viability was determined via a cell counting kit (CCK-8 Kit, ab228554; Abcam), and cytotoxicity was determined via the lactate dehydrogenase (LDH) assay (LDH Assay Kit, MK401; Takara).

A further data set concerns E. coli persister cells. The data set is described as follows: ChemBridge screen for persister cell killing. The class given is cell-based, Escherichia coli. As to conditions: 100 μM, 24 hr. The protocol:
FIG. 1. […] Escherichia coli persister cells were treated for 24 hr at 100 μM with: • 1: N-(3,4-dichlorophenyl)-N′-(3-fluorophenyl) thiourea; • 2: 2-({2-[(4-bromophenyl)amino]-4-quinazolinyl}amino)ethanol hydrochloride; • 3: 2-[(6-phenyl-2,3,4,9-tetrahydro-1H-carbazol-1-yl)amino] ethanol; • 4: 1-(3,6-dichloro-9H-carbazol-9-yl)-3-(2-methyl-1H-imidazol-1-yl)-2-propanol; • 5: N-[2-(4-fluorophenyl)ethyl]-N′-(4-nitrophenyl) thiourea; • 6: N-(4-chlorobenzyl)-N′-4-pyridinylthiourea; • 7: N′-(3,5-dichloro-2-hydroxybenzylidene)-2-oxo-4-phenyl-3-pyrrolidinecarbohydrazide; and • 8: [(5-nitro-3-phenyl-1H-indol-2-yl)methyl]amine hydrochloride (NPIMA, structure shown in inset).
To identify compounds that kill E. coli persister cells, 10,000 compounds of the DIVERset Library from ChemBridge (San Diego, CA) were tested by adding 4 μl of each (in DMSO, final concentration 100 μM) to 186 μl of LB in 96-well plates along with 10 μl of persister cells; the persister cells were added after the ChemBridge chemical since LB wakes persister cells (Kim, Yamasaki, et al., 2018). For the negative control, pure DMSO (final concentration 2 vol %) was used. The degree of inhibition was determined by the change in turbidity at 600 nm after 24 hr. The best 26 compounds were re-tested with the same conditions.
To screen directly for killing persister cells, a high-throughput approach using 96-well microtiter plates was devised that consisted of (a) washing persister cells formed from exponentially-growing cells using rifampicin pretreatment followed by ampicillin treatment, (b) adding 10 μl of the persister cells to 190 μl of LB containing one each of the 10,000 compounds of the DiverSet library dissolved in dimethyl sulfoxide (100 μM final concentration), and (c) monitoring for growth via change in turbidity for 24 hr. With this approach, we allowed for up to a 140-fold change in turbidity (0.005 could be increased to 0.69).

Data set [1] deals with E. coli BW25113 persister cells. The data set is described as follows: Survival of persister cells (rifampicin/ampicillin generated). The class given is cell-based, Escherichia coli. The following applies: 100 μM. The protocol: FIG. 3. NPIMA kills Escherichia coli, Pseudomonas aeruginosa, persister cells. Survival of (a) E. coli BW25113 and (b) P. aeruginosa PA14 after treatment with NPIMA (100 μM), 5-iodoindole (5-II, 100 μM), and DMSO for 6 hr. Asterisk indicates no viable cells detected. DMSO, dimethyl sulfoxide; NPIMA, 5-nitro-3-phenyl-1H-indol-2-yl-methylamine hydrochloride.
E. coli persister cells were prepared following our previous method (Kim, Yamasaki, et al., 2018; Kwan, Valenta, Benedik, & Wood, 2013). Exponentially-growing cells (turbidity of 0.8 at 600 nm) were treated with rifampicin (100 μg/ml for 30 min) to stop transcription, washed, and any remaining nonpersister cells were lysed by ampicillin in LB (100 μg/ml for 3 hr). Cells were harvested by centrifugation (17,000 g for 1 min) and washed with 1× phosphate-buffered saline buffer (PBS, 8 g NaCl, 0.2 g KCl, 1.15 g Na2HPO4, and 0.2 g KH2PO4 per 1,000 ml) twice to remove all possible carbon sources, then resuspended with 1×PBS. Natural E. coli persister cells were generated by treating stationary-phase cells (turbidity of 6 at 600 nm) with ampicillin (100 μg/ml) for 3 hr. P. aeruginosa PA14 persister cells were prepared by incubating to the stationary phase, diluting sixfold, and treating with carbonyl cyanide m-chlorophenylhydrazone (CCCP, 50 mg/ml stock solution in dimethly sulfoxide [DMSO]) to stop adenosine triphosphate (ATP) production (200 μg/ml for 3 hr), washed twice with 0.85% NaCl (5,000 g for 10 min), and any nonpersister cells were killed by ciprofloxacin (5 μg/ml) in LB for 3 hr. Following the antibiotic treatment, bacteria were washed twice with 0.85% NaCl (5,000 g for 10 min).
For bacterial viability, cells were washed twice with 0.85% NaCl, resuspended in 1×PBS, and cell counts were determined via the drop assay (Donegan, Matyac, Seidler, & Porteous, 1991). […] Cell viability was determined via a cell counting kit (CCK-8 Kit, ab228554; Abcam), and cytotoxicity was determined via the lactate dehydrogenase (LDH) assay (LDH Assay Kit, MK401; Takara).

In data set [2] the test system is E. coli exponentially-growing cells. The data set is described as follows: Killing at one MIC in PBS, NPIMA compared with cisplatin. The class given is cell-based, Escherichia coli. The following applies: 3 hr.
Excerpt: FIG. 7. NPIMA compared width cisplatin for killing Pseudomonas aeruginosa, Escherichia coli, and Staphylococcus aureus. Survival of exponentially-growing cells of P. aeruginosa PA14 (a), E. coli (b), and S. aureus (c) treated with one MIC of NPIMA (♦) and cisplatin (●) for 3 hr in PBS. DMSO (▴) and NaClO4 (*) were used as a negative controls. MIC, minimum inhibitory concentration; NPIMA, 5-nitro-3-phenyl-1H-indol-2-yl-methylamine hydrochloride.
as §1

In the case of `Cl.NCc1[nH]c2ccc([N+](=O)[O-])cc2c1-c1ccccc1` [NPIMA, [(5-nitro-3-phenyl-1H-indol-2-yl)methyl]amine hydrochloride], in the data set on E. coli BW25113, the “cell lysis seen by LIVE/DEAD staining (extracellular DNA)” value was “lysed”. Further, the “toxicity (LDH and CCK-8)” value in the data set on human cancer HT-29 cells (5 μM) and with human cancer HT-29 cells (10 μM) was “not toxic” each time. Also, the “concentrations showing toxicity in both tests” value in the data set on human cancer HT-29 cells was no less than 50 µM. Further, the “change of turbidity during first and second screen” value with E. coli persister cells is “reduced the turbidity”. Also, the “persister killing, second screen (FIG. 1)” value in the data set with E. coli persister cells (hydrochloride) is reported as “substantially more effective than the other compounds”; in the data set with E. coli persister cells (listed as 8, hydrochloride), “Most effective”. For the same molecule, the “time to eradicate E. coli persisters” value in data set [1] is 6 h. In data set [1] (6 hr), the “killing of E. coli persister cells” value was “eradicated”. The “effectiveness relative to cisplatin” value in data set [2] is on record as “more effective than cisplatin”.
